Data from patent US8940719B2, “Lithocholic acid analogues that inhibit sialyltransferase” (Academia Sinica, priority 2006, dated 2015).
Where two headings read alike, the source gives them in different places.

Molecular target: Rat liver α-2,3-ST (Rattus norvegicus (Rat), UniProt Q02734)
Experiment: α-2,3-ST inhibition assay (IC50), RP-HPLC of sialylated disaccharide product
Format: biochemical
Experimental: Compound synthesis was carried out with the following materials according the following general procedures. All chemicals and buffers were purchased from Sigma, Aldrich, or Acros Organics; and all amino acids were purchased from Advanced Chemtech. CMP-Neu5Ac was synthesized starting with sialic acid (Traving & Schauer, Cell. Mol. Life Sci., 1998, 54:1330; Schwarzkopf et al., Proc. Natl. Acad. Sci. USA, 2002, 99:5267). Synthesis of lactose acceptor was achieved as described in Harduin-Lepers et al., Biochimie, 2001, 83:727. Rat liver α-2,3-ST was obtained from CalBiochem at a concentration of 3.7 mU/μL, stored at −80° C., and used within one week. Melting points (m.p.) were recorded with a capillary melting point apparatus (Electrothermal MEL-TEMP); FT-IR spectra were recorded with Perkin Elmer FT-IR Spectrometer (Paragon 1000) in KBr pellets; ^1H and ^13C NMR spectra were recorded with Bruker AMX400 or 500 MHz instruments. Proton chemical shifts (δ) are reported in parts per million (ppm) relative to the methine singlet at 7.24 ppm for the residual CHCl3 in the deuteriochloroform, or the methyl pentet at 3.30 ppm for the residual CHD2OD in the methanol-d4. Carbon chemical shifts are reported in ppm relative to the internal ^13C signals in CDCl3 (77.0 ppm) and CD3OD-d4 (49.0 ppm). Mass spectra were obtained with a FAB JMS-700 double focusing mass spectrometer (JEOL, Tokyo, Japan), MALDI Voyager DE-PRO (Applied Biosystem Houston, USA), and ESI Finnigan LCQ mass spectrometer (Thermo Finnigan, San Jose, Calif., United States) in negative mode. […] The separation procedure was performed using H2O/0.1% trifluoroacetic acid (TFA) (A) and CH3CN/0.05% TFA (B) as eluents.
Each compound was tested for α-2,3-ST inhibition using CMP-Neu5Ac as a substrate and a modified disaccharide with a 4,5-dimethoxy-2-nitrobenzyl group as a UV-labeled acceptor. Specifically, inhibition assays were performed in triplicate in reaction solution containing 200 mM MES buffer, 100 mM sodium chloride, 0.5 mM disodium-EDTA, 0.01% Triton X-100, 20 μM modified disaccharide, 1.4 mU α-2,3-ST and inhibitor (in dimethyl sulfoxide) in a total volume of 55. Reactions were incubated at 37° C. for 10 minutes at which point 1 mM CMP-Neu5Ac (to a final concentration 3 μM) was added. The solution was then incubated at 37° C. until a detectable amount of product was produced. The reaction was terminated by quenching the solution mixture with heat at 100° C. for 5 minutes. Enzyme activity was determined by monitoring the quantity of sialylated disaccharide product produced over time at 348 nm by RP-HPLC (Supelco Discovery® HS C18, 5 μm, 4.6 mm×25 cm).

[1] = α-2,3-ST, CMP-Neu5Ac substrate, triplicate, read-out: IC50

Sequence of Rat liver α-2,3-ST (Q02734 whole entry): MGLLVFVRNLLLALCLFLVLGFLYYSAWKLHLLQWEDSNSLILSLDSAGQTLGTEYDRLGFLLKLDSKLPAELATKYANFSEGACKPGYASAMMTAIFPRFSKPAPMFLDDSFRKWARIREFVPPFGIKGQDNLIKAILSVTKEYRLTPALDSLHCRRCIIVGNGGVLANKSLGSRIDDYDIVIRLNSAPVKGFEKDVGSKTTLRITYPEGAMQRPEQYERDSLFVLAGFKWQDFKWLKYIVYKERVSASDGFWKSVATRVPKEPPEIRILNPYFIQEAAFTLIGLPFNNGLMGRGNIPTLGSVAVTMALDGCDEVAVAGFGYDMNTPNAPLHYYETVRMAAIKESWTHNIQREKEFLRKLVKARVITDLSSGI

Compound | IC50 [1] | other results
C[C@H](CCC(=O)O)C1CC[C@H]2C3CC[C@@H]4C[C@H](OC(=O)CCC(=O)O)CC[C@]4(C)C3CC[C@]12C (stereo partly drawn) [Compound 12, (R)-4-((3R,5R,10S,13R,14S)-3-(3-carboxypropanoyloxy)-10,13-dimethyl-hexadecahydro-1H-cyclopenta[a]phenanthren-17-yl)pentanoic acid] | 0.012 mM | fold potency over lithocholic acid (vs lithocholic acid): 2 fold
C[C@H](CCC(=O)O)[C@H]1CC[C@H]2[C@@H]3CC[C@@H]4C[C@H](O)CC[C@]4(C)[C@H]3CC[C@]12C [lithocholic acid] |  | IC50 (steroid screen for α-2,3-ST inhibition, unit mM, read-out: IC50 value): 0.021 mM
C[C@H](CCC(=O)N[C@@H](CC(=O)O)C(=O)O)C1CC[C@H]2C3CC[C@@H]4C[C@H](O)CC[C@]4(C)C3CC[C@]12C (stereo partly drawn) [Compound 10, (S)-2-((R)-4-((3R,5R,10S,13R,14S)-3-hydroxy-10,13-dimethyl-hexadecahydro-1H-cyclopenta[a]phenanthren-17-yl)pentanamido)succinic acid] | 0.016 mM | 
C[C@H](CCCn1cc(CC(N)C(=O)O)nn1)C1CC[C@H]2C3CC[C@@H]4C[C@H](O)CC[C@]4(C)C3CC[C@]12C (stereo partly drawn) [Compound 19, 2-amino-3-(1-((R)-4-((3R,5R,10S,13R,14S)-3-hydroxy-10,13-dimethyl-hexadecahydro-1H-cyclopenta[a]phenanthren-17-yl)pentyl)-1H-1,2,3-triazol-4-yl)propanoic acid] | 0.083 mM | 
C[C@H](CCC(=O)N[C@@H](CC(=O)O)C(=O)O)C1CC[C@H]2C3CC[C@@H]4C[C@H](OC(=O)CCC(=O)O)CC[C@]4(C)C3CC[C@]12C (stereo partly drawn) [Compound 16, (S)-2-((R)-4-((3R,5R,10S,13R,14S)-3-(3-carboxypropanoyloxy)-10,13-dimethyl-hexadecahydro-1H-cyclopenta[a]phenanthren-17-yl)pentanamido)succinic acid] | 0.018 mM | 
C[C@H](CCCn1cc(CCO)nn1)C1CC[C@H]2C3CC[C@@H]4C[C@H](O)CC[C@]4(C)C3CC[C@]12C (stereo partly drawn) [Compound 18, (3R,5R,10S,13R,14S)-17-((R)-5-(4-(2-hydroxyethyl)-1H-1,2,3-triazol-1-yl)pentan-2-yl)-10,13-dimethyl-hexadecahydro-1H-cyclopenta[a]phenanthren-3-ol] | > 0.1 mM | fold less potent than 21 (vs compound 21): at least 10 fold; fold less potent than 22 (vs compound 22): ≥ 20 fold
C[C@H](CCC(=O)NCC(=O)O)C1CC[C@H]2C3CC[C@@H]4C[C@H](OC(=O)CCC(=O)O)CC[C@]4(C)C3CC[C@]12C (stereo partly drawn) [Compound 15, 4-((3R,5R,10S,13R,14S)-17-((R)-5-(carboxymethylamino)-5-oxopentan-2-yl)-10,13-dimethyl-hexadecahydro-1H-cyclopenta[a]phenanthren-3-yloxy)-4-oxobutanoic acid] | 0.022 mM | 
C[C@H](CCCO)C1CC[C@H]2C3CC[C@@H]4C[C@H](O)CC[C@]4(C)C3CC[C@]12C (stereo partly drawn) [Compound 7, (3R,5R,10S,13R,14S)-17-((R)-5-hydroxypentan-2-yl)-10,13-dimethyl-hexadecahydro-1H-cyclopenta[a]phenanthren-3-ol] | 0.351 mM | fold decrease in potency relative to lithocholic acid (vs lithocholic acid): 5 to 17 fold
C[C@H](CCC(=O)O)C1CC[C@H]2C3CC[C@@H]4CC(=O)CC[C@]4(C)C3CC[C@]12C (stereo partly drawn) [Compound 11, (R)-4-((5R,10S,13R,14S)-10,13-dimethyl-3-oxo-hexadecahydro-1H-cyclopenta[a]phenanthren-17-yl)pentanoic acid] | 0.139 mM | fold decrease in potency relative to lithocholic acid (vs lithocholic acid): 7 fold
C[C@H](CCC(=O)O)C1CC[C@H]2C3CC[C@@H]4C[C@H](OC(=O)[C@H](N)CC(=O)O)CC[C@]4(C)C3CC[C@]12C (stereo partly drawn) [Compound 17, (R)-4-((3R,5R,10S,13R,14S)-3-((R)-2-amino-3-carboxypropanoyloxy)-10,13-dimethyl-hexadecahydro-1H-cyclopenta[a]phenanthren-17-yl)pentanoic acid] | 0.006 mM | fold improvement in potency over 13 (vs compound 13): 2 fold
